Test results published in patent US20070258912A1, “Use of Fluorescent Whitening Agents as Antimicrobials” (priority 2004, published 2007).

Legend:
Assay type in all cases: cell-based
[1] = tested on: Prevotella nigrescens; assay: MIC against oral microorganisms via broth dilution; details: ATCC33563, broth dilution 0.94-15 ppm, Columbia bouillon, 7-10 days at 37° C. anaerobically, ATCC 33563, read-out: MIC Prevotella nigrescens
Method: (§1) Determination of the Minimum Inhibition Concentration (MIC Value) Against Different Oral Microorganisms Via Broth Dilution
(§2) 1500 ppm stock solutions of the substances are prepared in ethanol and pipetted into the growth medium to yield concentrations between 0.94 and 15 ppm. Bacteria are taken from blood agar plates with cotton swabs and adjusted in the appropriate growth medium to yield an optical density corresponding to McFarland 0.5. This suspension is directly used in the case of F. nucleatum and P. nigrescens. For the other strains, the suspension is diluted 1:20. 0.1 ml of these bacterial suspensions are added to 2 ml of the substance solutions. After the incubation time, the tubes are assessed for growth (turbidity).
(§3) Test Organisms: *Actinobacillus actinomycetemcomitans ATCC 43718 *Stretococcus gordonii ATCC 10558 *Streptococcus mutans ATCC 33402 Actinomyces viscosus ATCC 43146 Fusobacterium nucleatum subsp. polymorphum ATCC 10953 Porphyromonas gingivalis ATCC 33277
(§4) Prevotella nigrescens ATCC 33563

[2] = tested on: Porphyromnas gingivalis; assay: MIC against oral microorganisms via broth dilution; details: broth dilution 0.94-15 ppm, Columbia bouillon, 7-10 days at 37° C. anaerobically, ATCC 33277; read-out: MIC Porphyromnas gingivalis
Method: as §1, §2, §3, §4

[3] = tested on: Fusobacterium nucleatum subsp. polymorphum; assay: MIC against oral microorganisms via broth dilution; details: ATCC10953, broth dilution 0.94-15 ppm, 7-10 days at 37° C. anaerobically, ATCC 10953, read-out: MIC Fusobacterium nucleatum subsp. polymorphum
Method: as §1, §2, §3, §4

[4] = tested on: Streptococcus mutans; assay: MIC against oral microorganisms via broth dilution; details: ATCC33402, broth dilution 0.94-15 ppm, 24 h aerobically with 10% CO2, ATCC 33402, read-out: MIC Streptococcus mutans
Method: as §1, §2, §3, §4

[5] = tested on: Streptococcus gordonii; assay: MIC against oral microorganisms via broth dilution; details: ATCC10558, broth dilution 0.94-15 ppm, 24 h aerobically with 10% CO2, ATCC 10558, read-out: MIC Streptococcus gordonii
Method: as §1, §2, §3, §4

[6] = tested on: Actinomyces viscosus; assay: MIC against oral microorganisms via broth dilution; details: ATCC43146, broth dilution 0.94-15 ppm, 7-10 days at 37° C. anaerobically, ATCC 43146, read-out: MIC Actinomyces viscosus
Method: as §1, §2, §3, §4

[7] = tested on: Corynebacterium minutissimum; assay: MIC in the agar incorporation test; details: agar incorporation, Mueller Hinton agar, 24 hours at 37° C., read-out: MIC Corynebacterium minutissimum
[8] = tested on: Escherichia coli; assay: MIC in the agar incorporation test; details: ATCC10536, agar incorporation, Mueller Hinton agar, 24 hours at 37° C., ATCC 10536, read-out: MIC Escherichia coli
Method: (§5) Determination of Minimum Inhibitory Concentration (MIC Values) in the Agar Incorporation Test
(§6) 1% stock solutions of the substances are prepared in an appropriate solvent and diluted in serial dilutions 1:2 (to yield end concentrations in the agar of 500-1.9 ppm). 0.3 ml of each dilution step is mixed with 15 ml of nutrient medium while the latter is still liquid. After the nutrient medium has solidified, 10 μl of each test strain in 0.85% NaCl solution are spotted onto the agar medium.
(§7) The plates are incubated at 37° C. for 24 hours and then the highest dilution (lowest concentration) of the test substance at which growth is no longer observable is determined.
(§8) Test Organisms: Staphylococcus aureus ATCC 6583 Staphylococcus epidermidis ATCC 12228 Corynebacterium xerosis ATCC 373 Propionibacterium acnes ATCC Escherichia coli ATCC 10536 Salmonella choleraesuis ATCC Klebsiella pneumoniae ATCC *Candida albicans ATCC 10231
(§9) *Aspergillus niger ATCC 6275

[9] = tested on: Propionibacterium acnes; assay: MIC in the agar incorporation test; details: Cutibacterium acnes; agar incorporation, Mueller Hinton agar, 24 hours at 37° C.; read-out: MIC Propionibacterium acnes
Method: as §5, §6, §7, §8, §9

[10] = tested on: Klebsiella pneumoniae; assay: MIC in the agar incorporation test; details: Mueller Hinton agar, 24 hours at 37° C.
Method: as §5, §6, §7, §8, §9

[11] = tested on: Corynebacterium xerosis; assay: MIC in the agar incorporation test; details: ATCC373, agar incorporation, Mueller Hinton agar, 24 hours at 37° C., ATCC 373, read-out: MIC Corynebacterium xerosis
Method: as §5, §6, §7, §8, §9

[12] = tested on: Staphylococcus aureus; assay: MIC in the agar incorporation test; details: ATCC6583, agar incorporation, Mueller Hinton agar, 24 hours at 37° C., ATCC 6583, read-out: MIC Staphylococcus aureus
Method: as §5, §6, §7, §8, §9

[13] = tested on: Salmonella choleraesuis; assay: MIC in the agar incorporation test; details: Salmonella enterica, Mueller Hinton agar, 24 hours at 37° C.
Method: as §5, §6, §7, §8, §9

[14] = tested on: Staphylococcus epidermis; assay: MIC in the agar incorporation test; details: ATCC12228, agar incorporation, Mueller Hinton agar, 24 hours at 37° C., ATCC 12228, read-out: MIC Staphylococcus epidermis
Method: as §5, §6, §7, §8, §9

[15] = tested on: Escherichia coli; assay: Microbicidal activity (suspension test, plate count); details: ATCC 10536
Method: (§10) Determination of Microbicidal Activity
(§11) 1 g stock solution with an appropriate concentration of test products are mixed with 8 g water and then inoculated with 1 ml of the selected test organisms. After a given contact period, aliquots are taken, inactivated and diluted. The number of surviving bacteria per ml incubation assay is determined by plate count. Proper inactivation by the inactivating medium used was checked each time.
(§12) Diluent: tryptone water for microorganisms
(§13) • (0.1% tryptone (Oxoid), 0.85% NaCl, deion. water) • deion. water for test substances • inactivating medium for detection of surviving microorganisms Growth medium: casein soybean peptone agar Inactivating Medium: tryptic soy broth special • (10% w/w Tween 80, 3% w/w Lecithine, 0.1% w/w L-Histidine, • 0.055% w/w Sodium thiosulfate) Test organisms: Staphylococcus aureus ATCC 6538 • Escherichia coli ATCC 10536 • Actinomyces viscosus ATCC 43146 • Corynebacterium xerosis ATCC 373 Test concentration: 120 ppm and 1200 ppm Contact times: 5 and 30 minutes at 22° C.
(§14) Incubation time: 24 h at 37° C.

[16] = tested on: Corynebacterium xerosis; assay: as above; details: ATCC 373
Method: as §10, §11, §12, §13, §14

[17] = tested on: Staphylococcus aureus; assay: as above; details: ATCC 6538
Method: as §10, §11, §12, §13, §14

[18] = tested on: Actinomyces viscosus; assay: as above; details: ATCC 43146
Method: as §10, §11, §12, §13, §14

[19] = tested on: Actinobacillus actinomycetemcomitans; assay: MIC against oral microorganisms via broth dilution; details: Aggregatibacter actinomycetemcomitans, ATCC43718; broth dilution 0.94-15 ppm, 24 h aerobically with 10% CO2, ATCC 43718
Method: as §1, §2, §3, §4

[20] = 1200 ppm, 5 min contact at 22° C.
[21] = 1200 ppm, 30 min contact at 22° C.

| Structure (SMILES) | MIC [1] | MIC [2] | MIC [3] | MIC [4] | MIC [5] | MIC [6] | MIC [7] | MIC [8] | MIC [9] | MIC [10] | MIC [11] | MIC [12] | MIC [13] | MIC [14] | Microbicidal activity Escherichia coli 120 ppm/5 min ([15]; 5 min contact at 22° C.) | Microbicidal activity Escherichia coli 120 ppm/30 min ([15]; 30 min contact at 22° C.) | Microbicidal activity Corynebacterium xerosis 120 ppm/5 min ([16]; 5 min contact at 22° C.) | Microbicidal activity Corynebacterium xerosis 120 ppm/30 min ([16]; 30 min contact at 22° C.) | Microbicidal activity Staphylococcus aureus 120 ppm/5 min ([17]; 5 min contact at 22° C.) | Microbicidal activity Staphylococcus aureus 120 ppm/30 min ([17]; 30 min contact at 22° C.) | other results |
| --- | --- | --- | --- | --- | --- | --- | --- | --- | --- | --- | --- | --- | --- | --- | --- | --- | --- | --- | --- | --- | --- |
| CN(C)CCSc1ccccc1/C=C/c1ccc(/C=C/c2ccccc2SCCN(C)C)cc1 [formula 23] | 7.5 µg/mL | 3.75 µg/mL | 7.5 µg/mL | 7.5 µg/mL | 7.5 µg/mL | 3.75 µg/mL | 3.9 µg/mL | 125 µg/mL | 3.9 µg/mL | 31.3 µg/mL | 7.8 µg/mL | 7.8 µg/mL | 125 µg/mL | 15.6 µg/mL | 3.3 log reduction | 5 log reduction | 5 log reductions | 5 log reductions | 2 log reduction | 4 log reduction | Microbicidal activity Actinomyces viscosus 120 ppm/5 min ([18]; 5 min contact at 22° C.): 2 log reductions; Microbicidal activity Actinomyces viscosus 120 ppm/30 min ([18]; 30 min contact at 22° C.): 4 log reductions |
| CCN(CC)CCOc1cccc(/C=C/c2ccc(/C=C/c3cccc(OCCN(CC)CC)c3OCCN(CC)CC)cc2)c1OCCN(CC)CC [formula 25] | 15 µg/mL |  |  |  |  | 15 µg/mL | 15.6 µg/mL | 125 µg/mL | 62.5 µg/mL |  | 15.6 µg/mL | 62.5 µg/mL | 125 µg/mL | 62.5 µg/mL | 5 log reduction | 5 log reduction | 5 log reductions | 5 log reductions | 1 log reduction | 1 log reduction | Microbicidal activity Escherichia coli 1200 ppm/5 min [15, 20]: 5 log reduction; Microbicidal activity Escherichia coli 1200 ppm/30 min [15, 21]: 5 log reduction; Microbicidal activity Corynebacterium xerosis 1200 ppm/5 min [16, 20]: 5 log reductions; Microbicidal activity Corynebacterium xerosis 1200 ppm/30 min [16, 21]: 5 log reductions; Microbicidal activity Staphylococcus aureus 1200 ppm/5 min [17, 20]: 2.9 log reduction; Microbicidal activity Staphylococcus aureus 1200 ppm/30 min [17, 21]: 2.8 log reduction; Microbicidal activity Actinomyces viscosus 120 ppm/5 min ([18]; 5 min contact at 22° C.): 2.9 log reductions; Microbicidal activity Actinomyces viscosus 120 ppm/30 min ([18]; 30 min contact at 22° C.): 2.1 log reductions; Microbicidal activity Actinomyces viscosus 1200 ppm/5 min [18, 20]: 4 log reductions; Microbicidal activity Actinomyces viscosus 1200 ppm/30 min [18, 21]: 4 log reductions |
| CN(C)CCCOc1ccccc1/C=C/c1ccc(/C=C/c2ccccc2OCCCN(C)C)cc1 [formula 26] | 1.9 µg/mL | 3.8 µg/mL | 3.8 µg/mL | 3.8 µg/mL | 7.5 µg/mL | 3.8 µg/mL | 6.3 µg/mL | 200 µg/mL | 12.5 µg/mL | 25 µg/mL | 3.1 µg/mL | 6.3 µg/mL | 200 µg/mL | 6.3 µg/mL | 4.5 log reduction | 5 log reduction | 2.9 log reductions | 5 log reductions | 0 log reduction | 4 log reduction | MIC [19]: 15 µg/mL; Microbicidal activity Actinomyces viscosus 120 ppm/5 min ([18]; 5 min contact at 22° C.): 0 log reductions; Microbicidal activity Actinomyces viscosus 120 ppm/30 min ([18]; 30 min contact at 22° C.): 3.7 log reductions |
| Cc1ccc(/C=C/c2ccc(/C=C/c3ccc(C)c(OCCCN(C)C)c3)cc2)cc1OCCCN(C)C [formula 30] | 3.8 µg/mL | 3.8 µg/mL | 3.8 µg/mL | 7.5 µg/mL | 15 µg/mL | 3.8 µg/mL | 3.1 µg/mL |  | 6.3 µg/mL | 25 µg/mL | 3.1 µg/mL | 12.5 µg/mL | 200 µg/mL | 12.5 µg/mL |  |  |  |  |  |  | MIC [19]: 15 µg/mL |
